Assay results as given in patent US10457676B2, “Capsazepine analogs for the treatment of cancer and other proliferative diseases” (THE BOARD OF REGENTS OF THE UNIVERSITY OF TEXAS SYSTEM, priority 2014, dated 2019).

Assays:
[1] = tested on: HSC3 cells; assay: Cell viability with antioxidant N-acetyl-cysteine (reversal, ROS mechanism); type: cell-based, human; conditions: 10 μM, 24 hours
Protocol: OSCC cell lines, SCC4, SCC25, and HSC3 were derived from human primary tongue OSCC. SCC4 and SCC25 cells were obtained from ATCC (Rockville, Md.). HSC3 cells were kindly provided by Dr. Brian Schmidt (NYU) (Saghafi, et al., 2011). Breast cancer cells (MDA231), Prostate cancer cells (PC3), and Non-Small Cell Lung Cancer cells (H460) were obtained from ATCC (Rockville, Md.). Cells were maintained in DMEM (Gibco, Carlsbad, Calif.) containing 10% FBS at 37° C. in 5% CO2. Immortalized keratinocytes (OKF6-TERT2; Harvard Medical School Cell Culture Core Collection, Cambridge, Mass.) were used as control epithelial cells.
Cytotoxicity was assessed using the Cell Titer 96® Aqueous Non-Radioactive Cell Proliferation Assay (Promega, Madison, Wis.) according to manufacturer's protocol. Absorbance values of test groups were normalized against controls (n=4).
ROS levels in OSCC cell lines were examined by flow cytometry using 2,7-dichlorodihydrofluorescein diacetate (DCF-DA; Sigma-Aldrich, St. Louis, Mo.). Cells (3×10^5) were plated in 12-well plates and incubated for 30 min with DCF-DA at 37° C. then treated with 30 μM of the appropriate capsazepine derivative or capsazepine using phenol free media with and without 10 mM NAC. Treated cells were incubated for 1 h at 37° C., harvested, washed twice, and analyzed by FACS.

[2] = tested on: oral cancer tumors; conditions: direct injection into tumors; cited from earlier work
[3] = tested on: SCC4 xenografts; assay: OSCC mouse xenograft model, intra-tumor injection; type: in vivo, athymic nude mice
Protocol: All studies were approved by the UTHSCSA Institutional Animal Care and Use Committee. Six week-old female athymic nude mice (Harlan, Indianapolis, Ind.) were used in a laminar air-flow cabinet under pathogen-free conditions. They were provided with a 12 h light/dark schedule at controlled temperature and humidity with food and water ad libitum. Mice were acclimated for one week prior to study initiation.
Mice were injected subcutaneously in the right flank with 2×10^6 SCC4 cells in 0.1 mL of sterile PBS. Four weeks post-inoculation, tumors grew to an average volume of 150 mm^3. Mice were stratified into two experimental groups (n=5 per group), which received the following treatments as intra-tumor injections: group A, vehicle control; group B, capsazepine or capsazepine derivative (analog) treatment. Treatments were repeated every other day for a total of 14 days.
Capsazepine and novel capsazepine analogs stock solutions (20 μg/μL, 100% Ethanol) were diluted to 5% Ethanol in sterile saline generating a final concentration of 1 μg/μL. SCC4 xenografts received intra-tumor injections of 40 μg CIDD24 or 40 μg capsazepine every other day (FIG. 4) for two weeks. In a second study SCC4 xenografts were injected with 80 μg CIDD24 or 80 μg CIDD111 every other day for two weeks (FIG. 5). Control xenografts received intra-tumor injections with vehicle control (5% Ethanol in sterile saline). Mice were monitored daily for tumor growth (using digital calipers), cachexia, and weight loss. Body temperature was monitored for 24 h following treatments. Tumor volumes were calculated by the elliptical formula: ½(Length×Width^2) (Jensen, et al., 2008).
Statistical analysis was performed using GraphPad Prism4 (San Diego, Calif.). Experiments were performed in triplicate and results are represented as means±SD except when indicated. Cytotoxicity assays of cell viability were analyzed by one-way ANOVA and Bonferroni's post hoc test (n=4). Statistical analyses of tumor growth were made using analysis of variance with repeated measures with Bonferroni's post hoc test (n=5). A p value less than 0.05 was considered statistically significant.

[4] = SCC4 tumors, 40 μg intra-tumor every other day for two weeks, n=5
[5] = SCC4 tumors, 80 μg every other day for two weeks, p<0.001

SMILES	cell growth inhibition with 10 mM N-acetyl-cysteine added [1]	reduction in tumor growth compared to vehicle control [3, 4]	reduction in tumor growth compared to vehicle control [3, 5]	further results
Oc1cc2c(cc1O)CN(C(=S)NCCc1ccc(Cl)cc1)CCC2 [capsazepine]	reversed	~50%		tumor volume after administration [2]: reduction of tumor volume
Oc1cc2c(cc1O)C(c1ccccc1)N(C(=S)NCCc1ccc(Cl)cc1Cl)CC2 (centres unmarked) [CIDD 118, N-[2-(2,4-dichlorophenyl)ethyl]-6,7-dihydroxy-1-phenyl-1,2,3,4-tetrahydroisoquinoline-2-carbothioamide]	reversed			
Oc1cc2c(cc1O)C(c1ccccc1)N(C(=S)NCc1ccccc1)CC2 (centres unmarked) [CIDD111, N-benzyl-6,7-dihydroxy-1-phenyl-1,2,3,4-tetrahydroisoquinoline-2-carbothioamide]			significant reduction in tumor growth	efficacy compared with CIDD24 ([3]; SCC4 tumors, 80 μg every other day for two weeks, no significant difference in potency): slightly more effective than CIDD24
Oc1cc2c(cc1O)CN(C(=S)NCCc1ccc(Cl)cc1)CC2 [CIDD24, N-[2-(4-chlorophenyl)ethyl]-6,7-dihydroxy-1,2,3,4-tetrahydroisoquinoline-2-carbothioamide]		80%	significant reduction in tumor growth	tumor volume % change, difference between CIDD 24 and capsazepine ([3]; SCC4 xenografts, 40 μg (1 μg/μl), 10 day period, #=p<0.05): statistically significant difference
Oc1cc2c(cc1O)C(c1ccccc1)N(C(=S)NCCc1ccc(Cl)cc1)CC2 (centres unmarked) [CIDD 99, N-[2-(4-chlorophenyl)ethyl]-6,7-dihydroxy-1-phenyl-1,2,3,4-tetrahydroisoquinoline-2-carbothioamide]	reversed			
O=C(NCCc1ccc(Cl)cc1)N1CCc2cc(O)c(O)cc2C1 [CIDD25, N-[2-(4-chlorophenyl)ethyl]-6,7-dihydroxy-1,2,3,4-tetrahydroisoquinoline-2-carboxamide]		50%		
